US20260262643A1, “HERBICIDAL BENZOXAZINES” (FMC CORPORATION, priority 2022, published 2026)

What was measured:
barnyardgrass [1] = test: Test C preemergence; format: in vivo, Echinochloa crusgalli
How it was run: (§1)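 Visual injury score, 0–100 (100 = complete control), taken 10 days after treatment relative to untreated controls. Pre: directed spray onto soil over sown seeds. Post: foliar spray at one- to two-leaf stage, 2–10 cm. Solvent/surfactant formulation; loam–sand soil; greenhouse.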

blackgrass [2] = test: Test C preemergence; format: in vivo, Alopecurus myosuroides
How it was run: as §1

corn [3] = test: Test C preemergence; format: in vivo, Zea mays
How it was run: as §1

foxtail, giant [4] = test: Test C preemergence; format: in vivo, Setaria faberi
Description: (§2) Seeds of plant species selected from barnyardgrass (Echinochloa crusgalli), blackgrass (Alopecurus myosuroides), corn (Zea mays), foxtail, giant (giant foxtail, Setaria faberi), green foxtail (Setaria viridis), goosegrass (Eleusine indica), kochia (Bassia scoparia), oat, wild (wild oat, Avena fatua), pigweed, palmer (palmer amaranth, palmer pigweed, Amaranthus palmeri), Pigweed, Redroot (redroot pigweed, Amaranthus retroflexus), ragweed (common ragweed, Ambrosia artemisiifolia), ryegrass, Italian ([…] ryegrass, Lolium multiflorum), soybean (Glycine max), and wheat (Triticum aestivum) were planted into a blend of loam soil and sand and treated preemergence with a directed soil spray using test chemicals formulated in a non-phytotoxic solvent mixture which included a surfactant. At the same time, plants selected from these crops and weed species and also galium (catchweed bedstraw, Galium aparine) and horseweed (Erigeron canadensis) were planted in pots containing the same blend of loam soil and sand and treated with postemergence applications of test chemicals formulated in the same manner. Plants ranged in height from 2 to 10 cm and were in the one- to two-leaf stage for the postemergence treatment. Treated plants and untreated controls were maintained in a greenhouse for 10 days, after which time all treated plants were compared to untreated controls and visually evaluated for injury. Plant response ratings, summarized in Table C, are based on a 0 to 100 scale where 0 is no effect and 100 is complete control. A dash (-) response means no test result.

kochia [5] = test: Test C preemergence; format: in vivo, Bassia scoparia
How it was run: as §1

oat, wild [6] = test: Test C preemergence; format: in vivo, Avena fatua
How it was run: as §1

pigweed, palmer [7] = test: Test C preemergence; format: in vivo, Amaranthus palmeri
How it was run: as §1

ragweed [8] = test: Test C preemergence; format: in vivo, Ambrosia artemisiifolia
How it was run: as §1

ryegrass, Italian [9] = test: Test C preemergence; format: in vivo, Lolium multiflorum
How it was run: as §1

soybean [10] = test: Test C preemergence; format: in vivo, Glycine max
How it was run: as §1

wheat [11] = test: Test C preemergence; format: in vivo, Triticum aestivum
How it was run: as §1

barnyardgrass [12] = test: Test C postemergence; format: in vivo, Echinochloa crusgalli; details: 10 days, 0 to 100 scale (0 no effect, 100 complete control)
How it was run: as §1

blackgrass [13] = test: Test C postemergence; format: in vivo, Alopecurus myosuroides; details: 10 days, 0 to 100 scale (0 no effect, 100 complete control)
How it was run: as §1

corn [14] = test: Test C postemergence; format: in vivo, Zea mays; details: 10 days, 0 to 100 scale (0 no effect, 100 complete control)
How it was run: as §1

foxtail, giant [15] = test: Test C postemergence; format: in vivo, Setaria faberi; details: 10 days, 0 to 100 scale (0 no effect, 100 complete control)
Description: as §2

kochia [16] = test: Test C postemergence; format: in vivo, Bassia scoparia; details: 10 days, 0 to 100 scale (0 no effect, 100 complete control)
How it was run: as §1

oat, wild [17] = test: Test C postemergence; format: in vivo, Avena fatua; details: 10 days, 0 to 100 scale (0 no effect, 100 complete control)
How it was run: as §1

pigweed, palmer [18] = test: Test C postemergence; format: in vivo, Amaranthus palmeri; details: 10 days, 0 to 100 scale (0 no effect, 100 complete control)
How it was run: as §1

ragweed [19] = test: Test C postemergence; format: in vivo, Ambrosia artemisiifolia; details: 10 days, 0 to 100 scale (0 no effect, 100 complete control)
How it was run: as §1

ryegrass, Italian [20] = test: Test C postemergence; format: in vivo, Lolium multiflorum; details: 10 days, 0 to 100 scale (0 no effect, 100 complete control)
How it was run: as §1

soybean [21] = test: Test C postemergence; format: in vivo, Glycine max; details: 10 days, 0 to 100 scale (0 no effect, 100 complete control)
How it was run: as §1

wheat [22] = test: Test C postemergence; format: in vivo, Triticum aestivum; details: 10 days, 0 to 100 scale (0 no effect, 100 complete control)
How it was run: as §1

galium = test: Test C postemergence; format: in vivo, Galium aparine; details: 10 days, 0 to 100 scale (0 no effect, 100 complete control)
How it was run: as §1

horseweed = test: Test C postemergence; format: in vivo, Erigeron canadensis; details: 10 days, 0 to 100 scale (0 no effect, 100 complete control)
How it was run: as §1

barnyardgrass [23] = test: Test D flooded paddy test; format: in vivo, Echinochloa crus-galli; details: 250 g ai/ha, applied to paddy water, visual rating after 13 to 14 days, scale 0 to 100 (0 no effect, 100 complete control)
How it was run: (§3)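 Visual ratings from 0, meaning no effect, to 100, meaning complete control, were assigned against untreated controls 13 to 14 days after compounds were added to the floodwater of pots kept 3 cm deep, with plants at the 2-leaf stage.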

ducksalad = test: Test D flooded paddy test; format: in vivo, Heteranthera limosa; details: 250 g ai/ha, applied to paddy water, visual rating after 13 to 14 days, scale 0 to 100 (0 no effect, 100 complete control)
How it was run: as §3

rice = test: Test D flooded paddy test; format: in vivo, Oryza sativa; details: 250 g ai/ha, applied to paddy water, visual rating after 13 to 14 days, scale 0 to 100 (0 no effect, 100 complete control)
How it was run: as §3

sedge, umbrella = test: Test D flooded paddy test; format: in vivo, Cyperus difformis; details: 250 g ai/ha, applied to paddy water, visual rating after 13 to 14 days, scale 0 to 100 (0 no effect, 100 complete control)
How it was run: as §3

[24] = 500 g ai/ha, preemergence, 0 to 100 scale (0 no effect, 100 complete control)
[25] = Preemergence, 125 g ai/ha, 0 to 100 scale, 0 no effect, 100 complete control

Structure (SMILES): Cc1cccc2c1OC(C(F)(F)F)CN2C(=O)c1ccnc(-n2cnc(C(C)C)n2)c1 (single isomer, unassigned) [Compound 328]
- Barnyardgrass plant response rating (barnyardgrass [1]; [24]): 100
- Plant response rating, Barnyardgrass (barnyardgrass [1]; [25]): 90
- Blackgrass plant response rating (blackgrass [2]; [24]): 80
- Plant response rating, Blackgrass (blackgrass [2]; [25]): 80
- Corn plant response rating (corn [3]; [24]): 90
- Plant response rating, Corn (corn [3]; [25]): 30
- Foxtail, Giant plant response rating (foxtail, giant [4]; [24]): 100
- Plant response rating, Foxtail, Giant (foxtail, giant [4]; [25]): 100
- Kochia plant response rating (kochia [5]; [24]): 70
- Plant response rating, Kochia (kochia [5]; [25]): 0
- Oat, Wild plant response rating (oat, wild [6]; [24]): 90
- Plant response rating, Oat, Wild (oat, wild [6]; [25]): 30
- Pigweed, Palmer plant response rating (pigweed, palmer [7]; [24]): 100
- Plant response rating, Pigweed, Palmer (pigweed, palmer [7]; [25]): 40
- Ragweed plant response rating (ragweed [8]; [24]): 50
- Plant response rating, Ragweed (ragweed [8]; [25]): 0
- Ryegrass, Italian plant response rating (ryegrass, Italian [9]; [24]): 100
- Plant response rating, Ryegrass, Italian (ryegrass, Italian [9]; [25]): 90
- Soybean plant response rating (soybean [10]; [24]): 100
- Plant response rating, Soybean (soybean [10]; [25]): 100
- Wheat plant response rating (wheat [11]; [24]): 90
- Plant response rating, Wheat (wheat [11]; [25]): 20
- Plant response rating, Barnyardgrass (barnyardgrass [12]; 500 g ai/ha, postemergence): 90
- Plant response rating, Barnyardgrass (barnyardgrass [12]; Postemergence, 125 g ai/ha): 60
- Plant response rating, Blackgrass (blackgrass [13]; 500 g ai/ha, postemergence): 80
- Plant response rating, Blackgrass (blackgrass [13]; Postemergence, 125 g ai/ha): 60
- Plant response rating, Corn (corn [14]; 500 g ai/ha, postemergence): 70
- Plant response rating, Corn (corn [14]; Postemergence, 125 g ai/ha): 20
- Plant response rating, Foxtail, Giant (foxtail, giant [15]; 500 g ai/ha, postemergence): 90
- Plant response rating, Foxtail, Giant (foxtail, giant [15]; Postemergence, 125 g ai/ha): 90
- Plant response rating, Kochia (kochia [16]; 500 g ai/ha, postemergence): 80
- Plant response rating, Kochia (kochia [16]; Postemergence, 125 g ai/ha): 50
- Plant response rating, Oat, Wild (oat, wild [17]; 500 g ai/ha, postemergence): 40
- Plant response rating, Oat, Wild (oat, wild [17]; Postemergence, 125 g ai/ha): 20
- Plant response rating, Pigweed, Palmer (pigweed, palmer [18]; 500 g ai/ha, postemergence): 90
- Plant response rating, Pigweed, Palmer (pigweed, palmer [18]; Postemergence, 125 g ai/ha): 50
- Plant response rating, Ragweed (ragweed [19]; 500 g ai/ha, postemergence): 60
- Plant response rating, Ragweed (ragweed [19]; Postemergence, 125 g ai/ha): 40
- Plant response rating, Ryegrass, Italian (ryegrass, Italian [20]; 500 g ai/ha, postemergence): 90
- Plant response rating, Ryegrass, Italian (ryegrass, Italian [20]; Postemergence, 125 g ai/ha): 50
- Plant response rating, Soybean (soybean [21]; 500 g ai/ha, postemergence): 100
- Plant response rating, Soybean (soybean [21]; Postemergence, 125 g ai/ha): 100
- Plant response rating, Wheat (wheat [22]; 500 g ai/ha, postemergence): 30
- Plant response rating, Wheat (wheat [22]; Postemergence, 125 g ai/ha): 30
- Plant response rating, Galium (galium; 500 g ai/ha, postemergence): 100
- Plant response rating, Galium (galium; Postemergence, 125 g ai/ha): 80
- Plant response rating, Horseweed (horseweed; 500 g ai/ha, postemergence): 60
- Plant response rating, Horseweed (horseweed; Postemergence, 125 g ai/ha): 0
- Plant response rating, Barnyardgrass (Flood) (barnyardgrass [23]): 15
- Plant response rating, Ducksalad (Flood) (ducksalad): 30
- Plant response rating, Rice (Flood) (rice): 0
- Plant response rating, Sedge, Umbrella (Flood) (sedge, umbrella): 85
